Literature values in paper PMC5959268 (Journal of medicinal chemistry, 2016).
Counter-ions that a name gives are not always drawn. *1 amine or outer side, *2 acyl side, *3 side chain or, on linkers, in order; H or OH if unused. Where no end group is shown, it is not given here. [ ]: non-standard residue; d: D form. Tyr(125I) = tyrosine labelled with iodine-125, O=C([C@H](Cc1ccc(O[*:3])c([125I])c1)N[*:1])[*:2]

Tests used:
hair regrowth = settings: aging CRF-overexpressing mice
[1] = system: CRF-stimulated ACTH release by cultured rat anterior pituitary cells; settings: rat pituitary cells in culture and adrenalectomized rats
CRF-R1 = settings: read-out: Kd of tracer at CRF-R1; saturation binding of radioligand

Row | Molecule | hair regrowth (hair regrowth) | other results
1 | CCCCN(CC)c1nc(C)nc2c1c(C)c(C)n2-c1c(C)cc(C)cc1C [antalarmin, N-butyl-N-ethyl-2,5,6-trimethyl-7-(2,4,6-trimethylphenyl)-7H-pyrrolol[2,3-d]pyrimidin-4-amine hydrochloride] | spotty results | 
2 | Nc1cc(N2CCCCC2)nc(N)[n+]1[O-] [minoxidil, 2,4-pyrimidinediamine, 6-(1-piperidinyl)-, 3-oxide] | spotty results | 
3 | [D-Phe^12,Nle^21,38]-h/rCRF(12–41) |  | potency relative to α-helical-CRF(9–41) at inhibiting release of ACTH [1]: ~ 18 times
4 | [^125ITyr^0-Glu^1]-PD-Svg YEGTSLDLTFDLLRHNLEIAKQEALKKQAAKNRLLLDTI-NH2 ([Tyr(125I)]EGTSLDLTFDLLRHNLEIAKQEALKKQAAKNRLLLDTI-NH2) |  | Kd (CRF-R1): 0.42 nM
